The values below are quoted from earlier work in US20090004105A1, “Molecular imaging of matrix metalloproteinase expression using labeled chlorotoxin” (priority 2007, published 2009).

In data set [1] the test system is tumors of neuroectodermal origin. As to conditions: immunohistochemical studies, Lyons et al. 2002.
In data set [2] the target is T1, MMP-2 presented on the surface of glioma cells (Homo sapiens, UniProt P08253).
T1 sequence (P08253 110-660): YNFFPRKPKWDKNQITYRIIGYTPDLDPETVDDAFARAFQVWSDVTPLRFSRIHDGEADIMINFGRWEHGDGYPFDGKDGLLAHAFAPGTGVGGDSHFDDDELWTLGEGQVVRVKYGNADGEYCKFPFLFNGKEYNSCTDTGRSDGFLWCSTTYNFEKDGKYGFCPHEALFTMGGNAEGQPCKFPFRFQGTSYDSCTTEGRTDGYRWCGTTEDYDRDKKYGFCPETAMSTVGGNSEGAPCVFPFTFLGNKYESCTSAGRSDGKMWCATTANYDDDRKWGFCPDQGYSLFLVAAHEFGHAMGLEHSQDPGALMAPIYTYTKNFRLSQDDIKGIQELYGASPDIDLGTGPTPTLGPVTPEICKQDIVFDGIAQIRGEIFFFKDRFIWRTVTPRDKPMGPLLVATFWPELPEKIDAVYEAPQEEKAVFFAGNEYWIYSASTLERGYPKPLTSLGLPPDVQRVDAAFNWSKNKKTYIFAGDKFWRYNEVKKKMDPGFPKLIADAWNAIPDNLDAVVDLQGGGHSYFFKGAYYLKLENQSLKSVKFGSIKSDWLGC
To be noted: Deshane et al. 2003.

Consider Chlorotoxin [Cltx], for which the “binding to tumors of neuroectodermal origin” value in data set [1] is “specifically and selectively binds”. In data set [2], the MMP-2 inhibition result is given as “specific MMP-2 inhibitor” and the “binding affinity to MMP-2 on glioma cell surface” value is on record as “high affinity”.
